The values below come from patent US6291676A, “Water-soluble derivatives of camptothecin/homocamptothecin” (priority 2000, dated 2001).

Type in all cases: physicochemical
Data set [1] in a line: HPLC lactone stability in presence of DMPC SUV. As to conditions: for less lactone compared to the prior art monoamine (7AEC): DMPC. Here is the method:
(§1) To further study the differential interactions of CT-17 versus 7AEC with liposomal particles, high performance liquid chromatographic (HPLC) methods were employed to study drug stabilities in the absence and presence of membranes. In these experiments, small unilamellar vesicles (SUV) composed of dimyristoyl phosphatidylcholine (DMPC) were prepared by weighing out dry lipid powder (Avanti Polar Lipids) in a glass tube with screw cap top. The lipid was suspended in phosphate buffered saline, pH 7.4, at the concentration of 20 mg/ml and vortexed vigorously for 1 minute. The suspension was sonicated in a bath-type sonicator (Laboratory Supplies Co., Hicksville, N.Y.) for 2-4 hours until optically clear solution is obtained. […] A decrease in pH from 7.4 to 7.2 was observed. The pH of the SUV preparation was adjusted to 7.4 by the addition of 0.1 M potassium hydroxide. The sample was resonicated after pH adjustment until optically clear. Small unilamellar vesicles composed of dimyristoyl phosphatidylglycerol (DMPG) were also prepared by weighing out dry powder of the lipid (Avanti Polar Lipids) in a glass tube with screw-cap top and prepared as in the case of DMPC. The pH of the preparation decreased from 7.4 to 6.9 and was adjusted to 7.4 by the addition of 0.1 M KOH. The preparation was resonicated for 30 minutes until optically clear.
(§2) Stock solutions of 7-(1-Aminoethyl)camptothecin, a monoamine compound known in the prior art, and CT-17 as prepared in Example 18 were prepared by weighing out dry powder and dissolving in dimethylsulfoxide (DMSO) at a concentration of 2 mM. The SUV preparations from above were incubated at 37° C. in a water bath for 30 minutes. The two camptothecin drugs were added to the SUV preparations such that the final drug concentrations were 1 μM. The samples were incubated at 37° C. and aliquots were withdrawn at 1 hour and 3 hours and added to cold methanol (-20° C.) and immediately analyzed by reversed-phase HPLC using the conditions as follows. Analysis was performed using either Waters Alliance 2690 LC system equipped with temperature controlled autosampler or Waters LC system equipped with temperature controlled 717 plus Autosampler and 501 pumps. The detection was using either Waters 470 or 474 fluorescence detectors. Solvent A was 2% triethylammonium acetate, pH 5.5 and Solvent B was acetonitrile. The column used was Waters Symmetry C18, 5 μm (3.9×150 mm). The autosampler temperature was maintained at 4-5° C. The conditions used for analysis of 7-(1-Aminoethyl)camptothecin: Isocratic elution using 15% of solvent A and 85% of solvent B; detection using λcx =370 and λcm =440. […] The HPLC data was collected and analyzed using Waters Millenium chromatography manager.

Data set [2] in a line: Fluorescence anisotropy titration: association with electroneutral DMPC vesicles. Here is the method:
Vesicle Preparation. Small unilamellar vesicle (SUV) suspensions were prepared the day of an experiment by the method of Burke et al. (T. G. Burke, A. K. Mishra, M. C. Wani, and M. E. Wall, Lipid Bilayer Partitioning and Stability of Camptothecin Drugs, Biochem., 32(20), 5352 (1993)). Briefly, stock lipid suspensions containing 200 mg/mL lipid in phosphate buffered saline (PBS, pH 7.4) were prepared by Vortex mixing for 5-10 min above the TM of the lipid. The lipid dispersions were then sonicated using a bath-type sonicator (Laboratory Supplies Co., Hicksville, N.Y.) for 3-4 h until they became optically clear. […] Each type of vesicle suspension was annealed for 30 min at 37° C. and then used in an experiment.
Fluorescence Instrumentation. Steady-state fluorescence measurements were obtained on a SLM Model 9850 spectrofluorometer with a thermostated cuvette compartment. This instrument was interfaced with an IBM PS/2 model 55 SX computer. Excitation and emission spectra were recorded with an excitation resolution of 8 nm and an emission resolution of 4 nm. In all cases spectra were corrected for background fluorescence and scatter from unlabeled lipids or from solvents by subtraction of the spectrum of a blank. Steady-state fluorescence intensity measurements were made in the absence of polarizers. Steady-state anisotropy (a) measurements were determined with the instrument in the "T-format" for simultaneous measurement of two polarized intensities. […] The anisotropy was calculated from a =(IVV -GIVH)/(IVV +2GIVH), where G=IHV /IHH and the subscripts refer to vertical and horizontal orientations of the excitation and emission polarizers, respectively.
Anisotropy measurements for camptothecins were conducted using exciting light in the range of 370 nm to 400 nm and long pass filters on each emission channel in order to isolate the drug's fluorescence signal from background scatter and/or residual fluorescence. […] The combination of exciting light and emission filters allowed us to adequately separate fluorescence from background signal. […]
A general note: In fluorescence polarisation assays a small probe gives low polarisation when free and higher when bound to something large.

A short description of data set [3]: HPLC lactone stability in presence of DMPG SUV. As to conditions: for less lactone compared to the prior art monoamine (7AEC): DMPG. As for the experimental part:
as §1, §2

Molecules are shown by their SMILES.

Turning to `CC[C@@]1(O)C(=O)OCc2c1cc1n(c2=O)Cc2c-1nc1ccccc1c2CNN1CCN(C)CC1` [CT-17, 7-[N-(4-methyl-1-piperazino)aminomethyl]-(20S)-camptothecin], the remaining at 1 h, 1 µM in data set [1] (DMPC SUV, PBS pH 7.4, 37° C, 1 hr, 1 μM drug, read-out: Percentage of Lactone, DMPC, 1 Hr) is 34 ± 3%; in data set [3] (DMPG SUV, PBS pH 7.4, 37° C, 1 hr, 1 μM drug, read-out: Percentage of Lactone, DMPG, 1 Hr), 87 ± 2%. In addition, the remaining at 3 h, 1 µM in data set [1] (DMPC SUV, PBS pH 7.4, 37° C, 3 hr, 1 μM drug, read-out: Percentage of Lactone, DMPC, 3 Hr) is 19 ± 3%; in data set [3] (DMPG SUV, PBS pH 7.4, 37° C, 3 hr, 1 μM drug, read-out: Percentage of Lactone, DMPG, 3 Hr) it was 78 ± 3%. For the same compound, the “less lactone compared to the prior art monoamine (7AEC)” value is 20% in data set [1] (1 hr), 17% in data set [1] (3 hr), 6% in data set [3] (1 hr) and 8% in data set [3] (3 hr). In addition, the “Overall association constant KDMPC” value in data set [2] (PBS buffer, pH 7.4, physiological temperature, DMPC) came to 30 M⁻¹. In addition, the “reduction in membrane binding relative to 7AEC (DMPC)” value in data set [2] (electroneutral DMPC membranes) was “greater than 2 fold”.
